Results taken from ChEMBL document CHEMBL1201862, “PubChem BioAssay data set” (2004).
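Cultured in 96-well plates, cells were exposed to test compound for 48 hours across five concentrations. GI50: concentration for 50% inhibition of growth.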 Activity calls are given as the source filed them. Rule as the data show it: active = GI50 up to about 1.1 µM and inactive = higher.

Columns and labels:
Test in all cases: inhibition of tumour cell growth, NCI panel, 48 h
[1] = tested on: SF-295
[2] = tested on: BT-549
[3] = tested on: NCI-H226
[4] = tested on: SW-620
[5] = tested on: SF-539
[6] = tested on: EKVX
[7] = tested on: SN12C
[8] = tested on: SF-268
[9] = tested on: OVCAR-5
[10] = tested on: SK-OV-3
[11] = tested on: IGROV-1
[12] = tested on: MDA-MB-435
[13] = tested on: Hs-578T
[14] = tested on: UACC-257
[15] = tested on: MDA-MB-231
[16] = tested on: T47D
[17] = tested on: M14
[18] = tested on: NCI-H460
[19] = tested on: TK-10
[20] = tested on: HL-60
[21] = tested on: SR
[22] = tested on: COLO 205
[23] = tested on: UACC-62
[24] = tested on: OVCAR-3
[25] = tested on: KM12
[26] = tested on: HOP-62
[27] = tested on: HCC 2998
[28] = tested on: U-251
[29] = tested on: RXF 393
[30] = tested on: CAKI-1
[31] = tested on: OVCAR-8
[32] = tested on: SNB-75
[33] = tested on: PC-3
[34] = tested on: RPMI-8226
[35] = tested on: HT-29
[36] = tested on: MCF7
[37] = tested on: LOX IMVI
[38] = tested on: ACHN
[39] = tested on: A549
[40] = tested on: SNB-19
[41] = tested on: NCI/ADR-RES
[42] = tested on: Malme-3M
[43] = tested on: DU-145
[44] = tested on: HCT-15
[45] = tested on: CCRF-CEM
[46] = tested on: HCT-116
[47] = tested on: 786-0
[48] = tested on: SK-MEL-28
[49] = tested on: SK-MEL-2
[50] = tested on: NCI-H23
[51] = tested on: MDA-N
[52] = tested on: MOLT-4
[53] = tested on: A498
[54] = tested on: UO-31
[55] = tested on: K562
[56] = tested on: OVCAR-4
[57] = tested on: SK-MEL-5
[58] = tested on: NCI-H522
[59] = tested on: HOP-92

Measured: GI50

C[n+]1c2ccccc2c2/c(=C\C#N)c3ccccc3n21
inactive: [1] 5.82 µM | [2] 3.42 µM | [3] 3.81 µM | [4] 3.07 µM | [5] 4.82 µM | [6] 2.44 µM | [7] 3.42 µM | [8] 6.27 µM | [9] 5.78 µM | [10] 3.88 µM | [11] 3 µM | [12] 5.43 µM | [13] 4.21 µM | [14] 3.06 µM | [15] 4.43 µM | [16] 5.73 µM | [17] 4.15 µM | [18] 4.35 µM | [19] 1.69 µM | [20] 3.85 µM | [21] 3.91 µM | [22] 1.56 µM | [23] 10.7 µM | [24] 3.44 µM | [25] 3.61 µM | [26] 2.84 µM | [27] 1.61 µM | [28] 2.73 µM | [29] 4.85 µM | [30] 23.8 µM | [31] 3.52 µM | [32] 3.23 µM | [33] 2.86 µM | [34] 3.28 µM | [35] 3.82 µM | [36] 2.16 µM | [37] 3.48 µM | [38] 4.91 µM | [39] 6.92 µM | [40] 5.24 µM | [41] 32 µM | [42] 2.53 µM | [43] 6.75 µM | [45] 3.66 µM | [46] 3.03 µM | [47] 3.5 µM | [48] 9.25 µM | [49] 3.49 µM | [50] 5.11 µM | [51] 3.7 µM | [52] 3.54 µM | [53] 20 µM | [54] 12.6 µM | [55] 5.42 µM | [56] 2.79 µM | [57] 6.53 µM
28.4 µM: [44]

COC(=O)C(CC(C)C)NC(=O)C(NC(=O)c1ccc(-c2ccc(Cl)cc2Cl)o1)C(C)C (centres undefined)
inactive: [1] 16.2 µM | [2] 30 µM | [3] 32.4 µM | [4] 28.8 µM | [5] 29.2 µM | [6] 13.7 µM | [7] 18 µM | [8] 22 µM | [9] 22.2 µM | [10] 30.8 µM | [58] 23.2 µM | [11] 18.7 µM | [12] 22.1 µM | [13] 27.5 µM | [14] 17.1 µM | [15] 13.8 µM | [16] 15.3 µM | [17] 24 µM | [18] 14.9 µM | [59] 14.2 µM | [19] 27.4 µM | [20] 6.56 µM | [21] 19.2 µM | [22] 17.7 µM | [23] 13.1 µM | [24] 16.3 µM | [25] 20.8 µM | [26] 21.4 µM | [27] 17.3 µM | [28] 17.9 µM | [29] 14.8 µM | [30] 15.7 µM | [31] 28.2 µM | [32] 23.9 µM | [33] 14.1 µM | [34] 11.6 µM | [35] 15.3 µM | [36] 16.5 µM | [37] 15.7 µM | [38] 20.8 µM | [39] 21 µM | [40] 30.5 µM | [41] 18.7 µM | [43] 21.8 µM | [45] 12.2 µM | [46] 12.3 µM | [47] 16.1 µM | [48] 33.4 µM | [49] 21.3 µM | [50] 22.5 µM | [51] 20.2 µM | [52] 12.9 µM | [54] 29 µM | [55] 16 µM | [56] 24.9 µM | [57] 20.3 µM
20.7 µM: [44]
